Reference: article PMC3651166, “Differential Cytotoxic Activity of a Novel Palladium-Based Compound on Prostate Cell Lines, Primary Prostate Epithelial Cells and Prostate Stem Cells” (PLoS ONE, 2013)
pIC50: −log10 of the molar value. Read-outs that look alike come from different tables or passages of the source.

Assays:
Type in all cases: cell-based, human
LC3-II = assay: Western blotting and immunofluorescence for autophagy, primary cells; settings: all primary cells
Description: γH2AX staining: Cells were seeded onto 8-well collagen I-coated chamber slides. […] After blocking of non-specific binding with 2% BSA in PBS with 1% goat serum for 1 hour at RT, primary antibody (anti-phospho-histone H2A.X (Ser139), clone JBW301, Millipore, Cat no. 05–636) at 1∶1000 dilution was added in 3% BSA in PBS at 4°C overnight followed by three washes in 0.5% BSA in PBS with 0.175% Tween 20. Following incubation with secondary antibody (Goat anti-mouse Alexa Fluor 568, Invitrogen, Cat no. A-11004) at 1∶1000 dilution for 45 min in 3% BSA in PBS and three more washes in the same washing buffer, the slides were mounted using Vectashield with DAPI (Vector Laboratories, Cat no. H-1200). LC3-B staining: Cells were treated as above then fixed with 4% paraformaldehyde, followed by an incubation in 0.3% Triton X-100. After blocking with 10% normal goat serum, cells were incubated in anti-LC3B 1∶200 (Ab51520, abcam) diluted in 0.1% Triton X-100 in PBS. Secondary antibody was Alexa Fluor 568 goat anti-rabbit IgG 1∶1000 (Invitrogen A11011).

[1] = system: PNT2-C2, BPH-1, P4E6, PC-3 and LNCaP; assay: Flow cytometry cell cycle analysis, cell lines
Description: (§1) Following drug treatment, floating cells in the media were pooled with adherent cells, which were collected by trypsinisation. Following centrifugation cells were resuspended in 0.5 ml PBS. Cells were fixed in 2 ml ice cold 70% ethanol, which was added in a dropwise fashion while vortexing. Cells were incubated on ice for 30 min then washed in 5 ml PBS and resuspended in 0.4 ml PBS. Following storage at 4°C overnight, 50 µl of RNAse (1 mg/ml) and 50 µl of propidium iodide (1 mg/ml) were added to the cells. Following incubation at 37°C for 30 min the cells were analysed for 2N and 4N DNA content on a flow cytometer (Cyan ADP Analyser, Beckman Coulter).

[2] = system: primary cultures from BPH and Gleason 6/7 cancers; assay: MTS assay, primary cultures BPH and Gleason 6/7 together
Text: Primary prostate epithelial cells were isolated from human tissue samples. The samples were collected with ethical permission from York District Hospital (York, UK) and Castle Hill Hospital (Cottingham, UK). Benign prostatic hyperplasia (BPH) and prostate cancer samples were obtained from TURP (transurethral resection of the prostate), radical prostatectomy (laparoscopic and open) and cystectomy operations. All patients gave written consent for their tissue to be used for research and all patient samples were anonymised. Permission was approved by the Local Research Ethical Committees, associated with York District Hospital and Castle Hill Hospital. Permission was administered by the Yorkshire and Humber Research Ethics Committee. […]
This assay was performed for the initial screening of the effect of the Pd complex on the cell lines and the whole cell population of primary cultures. […] Following 2.5 h incubation at 37°C, the absorbance was read at 485 nm using a plate reader (PolarStar Optima, BMG Labtech, UK). Percent viability was calculated using the formula (% Viability = [(Sample Absorbance/Control Absorbance)]×100.

[3] = system: PCa Primary cells (Gl8/9); assay: MTS assay, primary cultures from prostate carcinoma Gleason 8/9
Text: Primary prostate epithelial cells were isolated from human tissue samples. The samples were collected with ethical permission from York District Hospital (York, UK) and Castle Hill Hospital (Cottingham, UK). Benign prostatic hyperplasia (BPH) and prostate cancer samples were obtained from TURP (transurethral resection of the prostate), radical prostatectomy (laparoscopic and open) and cystectomy operations. All patients gave written consent for their tissue to be used for research and all patient samples were anonymised. Permission was approved by the Local Research Ethical Committees, associated with York District Hospital and Castle Hill Hospital. Permission was administered by the Yorkshire and Humber Research Ethics Committee.
Prostate epithelial cells were cultured as previously described in stem cell media (SCM) consisting of keratinocyte serum-free media (KSFM) with bovine pituitary extract (BPE) and epidermal growth factor (EGF), glutamine, stem cell factor (SCF), granulocyte macrophage colony stimulating factor (GM-CSF), leukaemia inhibitory factor (LIF) and cholera toxin. Cells were grown with STO feeder cells (irradiated at 60 Gy) on collagen I-coated plates.
(§2) This assay was performed for the initial screening of the effect of the Pd complex on the cell lines and the whole cell population of primary cultures. The CellTiter 96® Aqueous One Solution Cell Proliferation Assay kit (G3580, Promega, Madison, WI, USA) was used and the manufacturer’s instructions were followed. Briefly, after treating cells that were seeded at a density of 5,000 cells per well in a 96-well plate in triplicate for a desired period (24 h, 48 h, 72 h), 20 µL of reagent was added to each well. Following 2.5 h incubation at 37°C, the absorbance was read at 485 nm using a plate reader (PolarStar Optima, BMG Labtech, UK). Percent viability was calculated using the formula (% Viability = [(Sample Absorbance/Control Absorbance)]×100.
(§3) MTS and ATP assays were performed in triplicate and data presented as the mean +/− standard deviation. IC50 values (Table 3 and Table 4) were calculated from graphs of transformed data following application of the nonlinear regression (curve fit) that represents the log(inhibitor) ‘v’ normalized response (GraphPad Prism software) (Supplementary Figures S1 and S2). For significance calculations, the Wilcoxon rank sum test was used (Sigmaplot). Flow cytometry analysis was carried out in triplicate and results are presented as an average with error bars indicating the standard error.

P4E6, PC-3, LNCaP = assay: MTS assay, average over cancer cell lines; settings: average of P4E6, PC-3, LNCaP
Description: (§4) In this study, six different prostate cell lines (PNT1A, PNT2-C2, BPH-1, PC-3, LNCaP, P4E6) were used (Table 1). These cell lines encompass the spectrum of cellular differentiation status (basal, intermediate and luminal phenotypes), as well as the spectrum of normal, early cancer and late cancer. BPH-1 is derived from benign prostate hyperplasia (BPH), while PNT2-C2 and PNT1A are derived from normal prostate. PC-3, LNCaP and P4E6 are cancer cell lines. LNCaP, PNT2-C2, PNT1A were grown in RPMI medium with 10% FCS (foetal calf serum); PC-3 was grown in Ham’s F-12 medium with 7% FCS; BPH-1 was grown in RPMI medium with 5% FCS; P4E6 was grown in KSFM (Keratinocyte serum free medium) with 2% FCS. No antibiotics were used in any media. The cells were incubated at 37°C in a humidified atmosphere containing 5% CO2.
as §2
as §3, with “Flow cytometry analysis was carried out in triplicate and results are presented as an average with error bars indicating the standard error.” left out

[4] = system: primary prostate epithelial cells; assay: Flow cytometry cell cycle analysis, primary cells; settings: primary cells
Description: as §1

PNT1A, PNT2-C2, BPH-1 = assay: MTS assay, average over normal/benign cell lines; settings: average of PNT1A
Description: as §4, §2
as §3, with “Flow cytometry analysis was carried out in triplicate and results are presented as an average with error bars indicating the standard error.” left out

**Q.** What does the source list for [PdCl(terpy)](sac)⋅2 H2O [Pd complex]?
**A.** LC3-II (autophagy) (LC3-II): clear increase in LC3-II; sub-G1 DNA content (cell death) ([1]; PC3 cells): almost no change; sub-G1 DNA content (cell death) ([1]; all cell lines except PC3): increase in cells with sub-G1 DNA content; S and G2 peaks ([1]; normal cells (BPH-1, PNT2-C2)): reduction in the S and G2 peaks; concentrations having a significant anti-growth effect on all samples ([2]; BPH and Gleason 6/7 samples, 72 h): higher than 6.25; lowest concentration inducing a significant anti-growth effect ([2]; primary cultures, previous experiments (MTS)): 6.25 µM; pIC50 ([3]; PCa primary cells (Gl8/9), sample 14912, 72 h, read-out: IC50): 4.19; pIC50 ([3]; PCa primary cells (Gl8/9), sample 16312, 72 h, read-out: IC50): 4.15; pIC50 ([3]; PCa primary cells (Gl8/9), sample 22912, 72 h, read-out: IC50): 4.33; pIC50 ([3]; average of PCa primary cells (Gl8/9), 72 h, read-out: IC50 AVERAGE): 4.22; pIC50 (P4E6, PC-3, LNCaP; 24 h): 4.12; pIC50 (P4E6, PC-3, LNCaP; 48 h): 4.63; pIC50 (P4E6, PC-3, LNCaP; 72 h): 4.94; cells with more than 4N DNA content [4]: increase in cells with more than 4N DNA content; sub-G1 content [4]: clear dose response showing increase in sub-G1 content; pIC50 (PNT1A, PNT2-C2, BPH-1; PNT2-C2, BPH-1, 24 h): 4.80; pIC50 (PNT1A, PNT2-C2, BPH-1; PNT2-C2, BPH-1, 48 h): 5.17; pIC50 (PNT1A, PNT2-C2, BPH-1; PNT2-C2, BPH-1, 72 h): 6.42
